Among the data in patent publication US8853420B2, “Compounds” (Boehringer Ingelheim International GmbH, priority 2008, dated 2014) are remaining activity values, retold here.

T1 sequence (Q6DE08 60-361): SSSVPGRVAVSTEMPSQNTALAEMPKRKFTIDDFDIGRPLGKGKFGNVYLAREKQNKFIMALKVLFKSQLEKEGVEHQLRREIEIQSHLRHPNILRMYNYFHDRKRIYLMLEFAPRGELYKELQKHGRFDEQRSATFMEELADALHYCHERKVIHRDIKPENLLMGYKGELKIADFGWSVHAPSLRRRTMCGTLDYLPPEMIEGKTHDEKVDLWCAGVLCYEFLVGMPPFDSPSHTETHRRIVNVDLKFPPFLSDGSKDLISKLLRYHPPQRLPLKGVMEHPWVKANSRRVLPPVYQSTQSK
T1 sequence (O13024 790-847 partner limits assumed): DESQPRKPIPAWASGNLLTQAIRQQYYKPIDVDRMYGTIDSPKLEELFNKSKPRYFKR

The test concerns the target T1, Xenopus laevis Aurora B/INCENP complex (Xenopus laevis, UniProt Q6DE08).
T1 construct: equipped at the N-terminal position with a GST tag (amino acids 60-361); GST (N, cleaved yes); made in house; host or cells: E. coli BL21 (DE3)
Kind of test: Aurora-B kinase assay (radioactive enzyme inhibition assay). The test is classed as biochemical. As to conditions: test substance at 1 μM; percentage of the positive control (maximum value without test substance). From the text: Example Aurora-B Kinase Assay
A radioactive enzyme inhibition assay was developed using E. coli-expressed recombinant Xenopus laevis Aurora B wild-type protein equipped at the N-terminal position with a GST tag (amino acids 60-361) in a complex with Xenopus laevis INCENP (amino acids 790-847), which is obtained from bacteria and purified. In equivalent manner a Xenopus laevis Aurora B mutant (G96V) in a complex with Xenopus laevis INCENP^790-847 may also be used.
Expression and Purification
The coding sequence for Aurora-B^60-361 from Xenopus laevis is cloned into a modified version of pGEX-6T (Amersham Biotech) via BamHI and SalI cutting sites. The vector contains two cloning cassettes which are separated by a ribosomal binding site, allowing bi-cistronic expression. In this configuration Xenopus laevis Aurora B is expressed by the first cassette, and the Xenopus laevis INCENP^790-847 is expressed by the second cassette. The resulting vector is pAUB-IN^847.
First of all the E. coli strain BL21 (DE3) is co-transformed with pUBS520 helper plasmid and pAUB-IN^847, after which protein expression is induced using 0.3 mM IPTG at an OD600 of 0.45-0.7. The expression is then continued for approx. 12-16 h at 23-25° C. with agitation.
The bacteria are then removed by centrifuging and the pellet is lysed in lysis buffer (50 mM Tris/Cl pH 7.6, 300 mM NaCl, 1 mM DTT, 1 mM EDTA, 5% glycerol, Roche Complete Protease Inhibitor tablets) using ultrasound, using 20-30 mL lysis buffer per liter of E. coli culture. The lysed material is freed from debris by centrifugation (12000 rpm, 45-60 min, JA20 rotor). The supernatant is incubated with 300 μL of equilibrated GST Sepharose Fast Flow (Amersham Biosciences) per liter of E. coli culture for 4-5 h at 4° C. Then the column material is washed with 30 volumes of lysis buffer and then equilibrated with 30 volumes of cleavage buffer (50 mM Tris/Cl pH 7.6, 150 mM NaCl, 1 mM DTT, 1 mM EDTA). To cleave the GST tag from Aurora B, 10 units of Prescission Protease (Amersham Biosciences) are used per milligram of substrate and the mixture is incubated for 16 h at 4° C. The supernatant which contains the cleavage product is loaded onto a 6 mL Resource Q column (Amersham Biosciences) equilibrated with ion exchange buffer (50 mM Tris/Cl pH 7.6, 150 mM NaCl, 1 mM DTT, 1 mM EDTA). The Aurora B/INCENP complex is caught as it flows through, then concentrated and loaded onto a Superdex 200 size exclusion chromatography (SEC) column equilibrated with SEC buffer (10 mM Tris/Cl pH 7.6, 150 mM NaCl, 1 mM DTT, 1 mM EDTA). Fractions which contain the AuroraB/INCENP complex are collected and concentrated using Vivaspin concentrators (molecular weight exclusion 3000-5000 Da) to a final concentration of 12 mg/mL. Aliquots (e.g. 240 ng/μL) for kinase assays are transferred from this stock solution into freezing buffer (50 mM Tris/Cl pH 8.0, 150 mM NaCl, 0.1 mM EDTA, 0.03% Brij-35, 10% glycerol, 1 mM DTT) and stored at −80° C.
Test substances are placed in a polypropylene dish (96 wells, Greiner #655 201), in order to cover a concentration frame of 10 μM-0.0001 μM. The final concentration of DMSO in the assay is 5%. 30 μL of protein mix (50 mM tris/Cl pH 7.5, 25 mM MgCl2, 25 mM NaCl, 167 μM ATP, 10 ng Xenopus laevis Aurora B/INCENP complex in freezing buffer) are pipetted into the 10 μl of test substance provided in 25% DMSO and this is incubated for 15 min at RT. Then 10 μL of peptide mix (100 mM tris/Cl pH 7.5, 50 mM MgCl2, 50 mM NaCl, 5 μM NaF, 5 μM DTT, 1 μCi gamma-P33-ATP [Amersham], 50 μM substrate peptide [biotin-[…] or multimers thereof, or biotin-[…] or multimers thereof, or biotin-[…]]) are added. The reaction is incubated for 75 min (ambient temperature) and stopped by the addition of 180 μL of 6.4% trichloroacetic acid and incubated for 20 min on ice. […]
Consider `CN(C)Cc1ccc(N/C(=C2\C(=O)Nc3cc(-c4cccnc4)ccc32)c2ccccc2)cc1` [Example 71], for which the remaining activity at 1 µM is 24.5%.
`CC(C)Nc1ccc(-c2ccc3c(c2)NC(=O)/C3=C(\Nc2ccc(C(=O)NC3CCN(C)CC3)cc2)c2ccccc2)cn1` [Example 140]: the remaining activity at 1 µM turned out to be 2.26%.
Turning to `CN(C)Cc1ccc(N/C(=C2\C(=O)Nc3cc(C#CC(=O)Nc4ccccc4)ccc32)c2ccccc2)cc1` [Example 161], the remaining activity at 1 µM came to 1.69%.
On to `C[C@H](CO)NC(=O)C#Cc1ccc2c(c1)NC(=O)/C2=C(\Nc1ccc(CN(C)C)cc1)c1ccccc1` [Example 171], for which the remaining activity at 1 µM turned out to be 3.39%.
On to `CCNc1ncc(-c2ccc3c(c2)NC(=O)/C3=C(\Nc2ccc(CN(C)C)cc2)c2ccccc2)cn1` [Example 52], for which the remaining activity at 1 µM amounted to 2.78%.
To `CC(=O)Nc1ccc(-c2ccc3c(c2)NC(=O)/C3=C(\Nc2ccc(CN(C)C)cc2)c2ccccc2)cn1` [Example 62] belongs 1.96%.
To `CN(C)Cc1ccc(N/C(=C2\C(=O)Nc3cc(-c4cccc(-n5cccn5)c4)ccc32)c2ccccc2)cc1` [Example 64] belongs 13.4%.
As for `CCNc1cnc(-c2ccc3c(c2)NC(=O)/C3=C(\Nc2ccc(CN(C)C)cc2)c2ccccc2)cn1` [Example 1], the remaining activity at 1 µM was determined as 15.2%.
Under `CC(C)Nc1ccc(-c2ccc3c(c2)NC(=O)/C3=C(\Nc2ccc(C(=O)N3CC[C@H](N(C)C)C3)cc2)c2ccccc2)cn1` [Example 136] stands 0.48%.
As for `CN(C)Cc1ccc(N/C(=C2\C(=O)Nc3cc(-c4cnc(NC5CCC5)nc4)ccc32)c2ccccc2)cc1` [Example 45], the remaining activity at 1 µM is 1.76%.
Regarding `CC(C)Nc1ccc(-c2ccc3c(c2)NC(=O)/C3=C(\Nc2ccc(C(C)(C)C(=O)N(C)C3CCN(C)CC3)cc2)c2ccccc2)cn1` [Example 103], the remaining activity at 1 µM was 3.84%.
As to `CC(C)Nc1ccc(-c2ccc3c(c2)NC(=O)/C3=C(\Nc2ccc(C(=O)N3CCCN(C4CC4)CC3)cc2)c2ccccc2)cn1` [Example 119], the remaining activity at 1 µM turned out to be 3.54%.
For the molecule `CN(C)Cc1ccc(N/C(=C2\C(=O)Nc3cc(-c4ccc5c(c4)CC(=O)N5)ccc32)c2ccccc2)cc1` [Example 60], the remaining activity at 1 µM worked out at 26.3%.
With `CC(C)Nc1ncc(-c2ccc3c(c2)NC(=O)/C3=C(\Nc2ccc(C(=O)O)cc2)c2ccccc2)cn1` [Example 83], the remaining activity at 1 µM is 1.04%.
Turning to `CC(C)Nc1ccc(-c2ccc3c(c2)NC(=O)/C3=C(\Nc2ccc(C(=O)N3CCN(C4CC4)CC3)cc2)c2ccccc2)cn1` [Example 126], the remaining activity at 1 µM stood at 5.84%.
For the molecule `CN(C)Cc1ccc(N/C(=C2\C(=O)Nc3cc(-c4cccc(C#N)c4)ccc32)c2ccccc2)cc1` [Example 39], the remaining activity at 1 µM was found to be 30.9%.
For the molecule `CN(C)Cc1ccc(N/C(=C2\C(=O)Nc3cc(-c4cnc(NC5CC5)nc4)ccc32)c2ccccc2)cc1` [Example 48], the remaining activity at 1 µM was found to be 3.44%.
To `CC(C)Nc1ccc(-c2ccc3c(c2)NC(=O)/C3=C(\Nc2ccc(C(=O)N3CCC(N4CCOCC4)CC3)cc2)c2ccccc2)cn1` [Example 121] belongs 3.31%.
To `CN1CCN(c2ccc(N/C(=C3\C(=O)Nc4cc(C#CC(=O)NC5CCCC5)ccc43)c3ccccc3)cc2)CC1` [Example 164] belongs 3.17%; to `CC(C)Nc1ncc(-c2ccc3c(c2)NC(=O)/C3=C(\Nc2ccc3c(c2)CN(C)C3)c2ccccc2)cn1` [Example 94], 5.83%; to `COC(=O)c1ccc(N/C(=C2\C(=O)Nc3cc(-c4cnc(NC(C)C)nc4)ccc32)c2ccccc2)cc1` [Example 84], 65.2%.
Under `CC(C)Nc1ccc(-c2ccc3c(c2)NC(=O)/C3=C(\Nc2ccc(C(=O)N3CCN(CC(F)(F)F)CC3)cc2)c2ccccc2)cn1` [Example 125] stands 8.83%.
Turning to `CN(C)Cc1ccc(N/C(=C2\C(=O)Nc3cc(-c4cccc(S(N)(=O)=O)c4)ccc32)c2ccccc2)cc1` [Example 67], the remaining activity at 1 µM stood at 5.48%.
On to `CN(C)Cc1ccc(N/C(=C2\C(=O)Nc3cc(-c4cnc(N(C)C)nc4)ccc32)c2ccccc2)cc1` [Example 44], for which the remaining activity at 1 µM turned out to be 27.9%.
For the molecule `CN(C)Cc1ccc(N/C(=C2\C(=O)Nc3cc(-c4ccc(OCC5CC5)nc4)ccc32)c2ccccc2)cc1` [Example 15], the remaining activity at 1 µM is 22%.
As for `CC(C)Nc1ccc(-c2ccc3c(c2)NC(=O)/C3=C(\Nc2ccc(C(C)(C)C(=O)NC3CCN(C)CC3)cc2)c2ccccc2)cn1` [Example 102], the remaining activity at 1 µM came out at 2.07%.
Regarding `CNc1ccc(N/C(=C2\C(=O)Nc3cc(-c4cnc(NC(C)C)nc4)ccc32)c2ccccc2)cc1` [Example 85], the remaining activity at 1 µM turned out to be 50.3%.
With `CN(C)Cc1ccc(N/C(=C2\C(=O)Nc3cc(C#CC(=O)NC4CCC4)c(F)cc32)c2ccccc2)cc1` [Example 155], the remaining activity at 1 µM is 8.61%.
Take `CCNC(=O)C#Cc1cc2c(cc1S(=O)(=O)N1CC(F)(F)C1)/C(=C(/Nc1ccc(N3CCN(C)CC3)cc1)c1ccccc1)C(=O)N2` [Example 152]: the remaining activity at 1 µM amounted to 4.33%.
`CC(C)Nc1ncc(-c2ccc3c(c2)NC(=O)/C3=C(\Nc2ccc(CN(C)C)cc2)c2ccccc2)cn1` [Example 46]: the remaining activity at 1 µM is 2.13%.
Take `C[C@H](CO)NC(=O)C#Cc1ccc2c(c1)NC(=O)/C2=C(\Nc1ccc(CN2CCCC2)cc1)c1ccccc1` [Example 172]: the remaining activity at 1 µM was found to be 3.21%.
Take `CCN1CCC2(CCN(C(=O)c3ccc(N/C(=C4\C(=O)Nc5cc(-c6ccc(NC(C)C)nc6)ccc54)c4ccccc4)cc3)C2)C1` (centres unmarked) [Example 117]: the remaining activity at 1 µM was determined as 3.03%.
For `COc1cc(N/C(=C2\C(=O)Nc3cc(-c4ccc(NC(C)C)nc4)ccc32)c2ccccc2)ccc1C(=O)N1CCC(N(C)C)CC1` [Example 107], the remaining activity at 1 µM stood at 1.66%.
For the molecule `CN(C)Cc1ccc(N/C(=C2\C(=O)Nc3cc(-c4cnc(NCC(F)F)nc4)ccc32)c2ccccc2)cc1` [Example 47], the remaining activity at 1 µM amounted to 1.59%.
As for `CN(C)Cc1ccc(N/C(=C2\C(=O)Nc3cc(-c4ccc(C(N)=O)cc4)ccc32)c2ccccc2)cc1` [Example 43], the remaining activity at 1 µM is 102%.
For `CC(C)Nc1ncc(-c2ccc3c(c2)NC(=O)/C3=C(\Nc2cccc(CN3CCCC3)c2)c2ccccc2)cn1` [Example 91], the remaining activity at 1 µM worked out at 9.48%.
To `CN(C)Cc1ccc(N/C(=C2\C(=O)Nc3cc(C#CC(=O)NC4CC4)ccc32)c2ccccc2)cc1` [Example 159] belongs 2.07%; to `CN(C)Cc1ccc(N/C(=C2\C(=O)Nc3cc(C#CC(=O)NCC(F)F)ccc32)c2ccccc2)cc1` [Example 167], 2.96%.
Take `CCNC(=O)C#Cc1ccc2c(c1)NC(=O)/C2=C(\Nc1ccc(CN(C)C)c(F)c1)c1ccccc1` [Example 176]: the remaining activity at 1 µM stood at 1.65%.
With `CN(C)Cc1ccc(N/C(=C2\C(=O)Nc3cc(-c4ccc(C(=O)O)nc4)ccc32)c2ccccc2)cc1` [Example 54], the remaining activity at 1 µM was found to be 157%.
As for `CC(C)Nc1ccc(-c2ccc3c(c2)NC(=O)/C3=C(\Nc2ccc(C(=O)N3CCN(CC4CC4)CC3)cc2)c2ccccc2)cn1` [Example 118], the remaining activity at 1 µM was 4.44%.

The term remaining activity denotes the signal under treatment as a percentage of the control signal.
